What all share (format): cell-based
The test system of one assay is Parental (Ba/F3). As to the kind of experiment: Ba/F3 cell proliferation inhibition. Particulars: BaF3; 72 hours, Cell Counting Kit-8. The essentials:
(§1)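 Parental and T315I-Bcr-Abl Ba/F3 cells, 1×10^4 per well, exposed 72 h at 37 °C to nine 3-fold dilutions, final 0 to 10 μM. Viability by CCK-8 after 2 h, absorbance 450 nm; GI50 fitted from percent of vehicle-treated cells.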

For a further assay, the system named is T315I-Bcr-Abl (Ba/F3). As to the kind of experiment: Ba/F3 cell proliferation inhibition. Particulars: BaF3; 72 hours, Cell Counting Kit-8. The essentials:
as §1
(Tetrazolium assays rely on reduction of a dye to a coloured formazan, in cell work by metabolically active cells.)

In a further assay the test system is KOPM28 cells. As to the kind of experiment: human CML cell proliferation inhibition. The conditions noted are these: 72 hours, Cell Counting Kit-8. Summed up: (§2)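 Seed 1×10^4 cells/well; add compound, 9 concentrations by 5-fold dilution, final 0–10 μM, or DMSO; incubate 72 h, 37 °C, CO2; add CCK-8 for 2 h; read A450; normalise to vehicle; fit GI50.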
In the next assay the test system is T315I-KOPM28 cells. Description: human CML cell proliferation inhibition. The conditions noted are these: 72 hours, Cell Counting Kit-8. The essentials: as §2
In the next assay the test system is T315I-TCCS cells. Description: human CML cell proliferation inhibition. Particulars: 72 hours, Cell Counting Kit-8. The essentials: as §2
Another assay deals with TCCS cells. Description: human CML cell proliferation inhibition. The conditions noted are these: 72 hours, Cell Counting Kit-8. Summed up:
as §2

Each structure is given as a SMILES string.

As for `Cc1cc(F)c(C(=O)Nc2cc(CN3CCN(CCO)CC3)cc(C(C)(C)C#N)c2)cc1C#Cc1cnc2c(Nc3cn[nH]c3)cccn12` [Example 86, 5-((8-((1H-pyrazol-4-yl)amino)imidazo[1,2-a]pyridin-3-yl)ethynyl)-N-(3-(2-cyanopropan-2-yl)-5-((4-(2-hydroxyethyl)piperazin-1-yl)methyl)phenyl)-2-fluoro-4-methylbenzamide], the 50% growth inhibitory concentration (GI50) (usually the concentration at which growth is held to half of that of the control) in the assay with Parental (Ba/F3) is 0.5 to 5 µM; in the assay on T315I-Bcr-Abl (Ba/F3), < 50 nM; with KOPM28 cells, < 10 nM; with T315I-KOPM28 cells, 100 nM; with T315I-TCCS cells, 100 nM; in the assay on TCCS cells, < 10 nM.

As to `Cc1cc(F)c(C(=O)Nc2cc(CN3CCN(S(C)(=O)=O)CC3)cc(C(C)(C)C#N)c2)cc1C#Cc1cnc2c(Nc3cn[nH]c3)cccn12` [Example 87, 5-((8-((1H-pyrazol-4-yl)amino)imidazo[1,2-a]pyridin-3-yl)ethynyl)-N-(3-(2-cyanopropan-2-yl)-5-((4-(methylsulfonyl)piperazin-1-yl)methyl)phenyl)-2-fluoro-4-methylbenzamide], the GI50 in the assay with Parental (Ba/F3) is > 5 µM; in the assay on T315I-Bcr-Abl (Ba/F3), 50 to 500 nM; in the assay on KOPM28 cells, < 10 nM; in the assay with T315I-KOPM28 cells, > 100 nM; in the assay on T315I-TCCS cells it was 100 nM; in the assay on TCCS cells it was < 10 nM.

For the compound `Cc1cc(F)c(C(=O)Nc2cc(CN3CCN(C)C(=O)C3)cc(C(C)(C)C#N)c2)cc1C#Cc1cnc2c(Nc3cn[nH]c3)cccn12` [Example 88, 5-((8-((1H-pyrazol-4-yl)amino)imidazo[1,2-a]pyridin-3-yl)ethynyl)-N-(3-(2-cyanopropan-2-yl)-5-((4-methyl-3-oxopiperazin-1-yl)methyl)phenyl)-2-fluoro-4-methylbenzamide], the GI50 in the assay with Parental (Ba/F3) is 0.5 to 5 µM; in the assay with T315I-Bcr-Abl (Ba/F3), 50 to 500 nM; with KOPM28 cells it was < 10 nM; with T315I-KOPM28 cells, > 100 nM; with T315I-TCCS cells, > 100 nM; with TCCS cells, < 10 nM.

Consider `Cc1cc(F)c(C(=O)Nc2cc(Cn3cncn3)cc(C(C)(C)C#N)c2)cc1C#Cc1cnc2c(Nc3cn[nH]c3)cccn12` [Example 89, N-(3-((1H-1,2,4-triazol-1-yl)methyl)-5-(2-cyanopropan-2-yl)phenyl)-5-((8-((1H-pyrazol-4-yl)amino)imidazo[1,2-a]pyridin-3-yl)ethynyl)-2-fluoro-4-methylbenzamide], for which the GI50 in the assay with Parental (Ba/F3) is > 5 µM; in the assay with T315I-Bcr-Abl (Ba/F3) it was < 50 nM; with KOPM28 cells, < 10 nM; in the assay on T315I-KOPM28 cells it was 100 nM; in the assay on T315I-TCCS cells it was 100 nM; with TCCS cells, < 10 nM.

On to `Cc1cc(F)c(C(=O)Nc2ccc(CN3CCN(C)CC3)c(C(C)(C)C#N)c2)cc1C#Cc1cnc2c(Nc3cn[nH]c3)cccn12` [Example 90, 5-((8-((1H-pyrazol-4-yl)amino)imidazo[1,2-a]pyridin-3-yl)ethynyl)-N-(3-(2-cyanopropan-2-yl)-4-((4-methylpiperazin-1-yl)methyl)phenyl)-2-fluoro-4-methylbenzamide], for which the GI50 is 0.05 to 0.5 µM in the assay with Parental (Ba/F3); < 50 nM with T315I-Bcr-Abl (Ba/F3); < 10 nM in the assay on KOPM28 cells; 100 nM with T315I-KOPM28 cells; 100 nM in the assay with T315I-TCCS cells; < 10 nM with TCCS cells.

As to `Cc1cc(F)c(C(=O)Nc2ccc(CN3CCC(N(C)C)C3)c(C(C)(C)C#N)c2)cc1C#Cc1cnc2c(Nc3cn[nH]c3)cccn12` (stereo not drawn) [Example 91, 5-((8-((1H-pyrazol-4-yl)amino)imidazo[1,2-a]pyridin-3-yl)ethynyl)-N-(3-(2-cyanopropan-2-yl)-4-((3-(dimethylamino)pyrrolidin-1-yl)methyl)phenyl)-2-fluoro-4-methylbenzamide], the GI50 with Parental (Ba/F3) is 0.5 to 5 µM; in the assay with T315I-Bcr-Abl (Ba/F3), 50 to 500 nM; in the assay with KOPM28 cells it was < 10 nM; in the assay with T315I-KOPM28 cells, > 100 nM; in the assay with T315I-TCCS cells it was > 100 nM; with TCCS cells, < 10 nM.

On to `Cc1cc(F)c(C(=O)Nc2ccc(CN3CCN(CCO)CC3)c(C(C)(C)C#N)c2)cc1C#Cc1cnc2c(Nc3cn[nH]c3)cccn12` [Example 92, 5-((8-((1H-pyrazol-4-yl)amino)imidazo[1,2-a]pyridin-3-yl)ethynyl)-N-(3-(2-cyanopropan-2-yl)-4-((4-(2-hydroxyethyl)piperazin-1-yl)methyl)phenyl)-2-fluoro-4-methylbenzamide], for which the 50% growth inhibitory concentration (GI50) in the assay with Parental (Ba/F3) is 0.5 to 5 µM; in the assay with T315I-Bcr-Abl (Ba/F3), < 50 nM; in the assay with KOPM28 cells it was < 10 nM; with T315I-KOPM28 cells, 100 nM; in the assay on T315I-TCCS cells, 100 nM; in the assay with TCCS cells, < 10 nM.

With `Cc1cc(F)c(C(=O)Nc2ccc(CN3CCN(C)C(=O)C3)c(C(C)(C)C#N)c2)cc1C#Cc1cnc2c(Nc3cn[nH]c3)cccn12` [Example 93, 5-((8-((1H-pyrazol-4-yl)amino)imidazo[1,2-a]pyridin-3-yl)ethynyl)-N-(3-(2-cyanopropan-2-yl)-4-((4-methyl-3-oxopiperazin-1-yl)methyl)phenyl)-2-fluoro-4-methylbenzamide], the GI50 in the assay with Parental (Ba/F3) is 0.5 to 5 µM; in the assay on T315I-Bcr-Abl (Ba/F3) it was 50 to 500 nM; with KOPM28 cells, < 10 nM; with T315I-KOPM28 cells it was > 100 nM; with T315I-TCCS cells, > 100 nM; with TCCS cells it was < 10 nM.

On to `Cc1cc(F)c(C(=O)Nc2ccc(CN3CCN(S(C)(=O)=O)CC3)c(C(C)(C)C#N)c2)cc1C#Cc1cnc2c(Nc3cn[nH]c3)cccn12` [Example 94, 5-((8-((1H-pyrazol-4-yl)amino)imidazo[1,2-a]pyridin-3-yl)ethynyl)-N-(3-(2-cyanopropan-2-yl)-4-((4-(methylsulfonyl)piperazin-1-yl)methyl)phenyl)-2-fluoro-4-methylbenzamide], for which the 50% growth inhibitory concentration (GI50) was > 5 µM with Parental (Ba/F3); 500 to 5000 nM in the assay on T315I-Bcr-Abl (Ba/F3); < 10 nM in the assay on KOPM28 cells; > 100 nM with T315I-KOPM28 cells; > 100 nM with T315I-TCCS cells; < 10 nM in the assay on TCCS cells.

On to `Cc1cn(-c2cc(NC(=O)c3cc(C#Cc4cnc5c(Nc6cn[nH]c6)cccn45)c(C)cc3F)cc(C(F)(F)F)c2)cn1` [Example 95, 5-((8-((1H-pyrazol-4-yl)amino)imidazo[1,2-a]pyridin-3-yl)ethynyl)-2-fluoro-4-methyl-N-(3-(4-methyl-1H-imidazol-1-yl)-5-(trifluoromethyl)phenyl)benzamide], for which the 50% growth inhibitory concentration (GI50) in the assay with Parental (Ba/F3) is > 5 µM; in the assay on T315I-Bcr-Abl (Ba/F3), < 50 nM; with KOPM28 cells, < 10 nM; in the assay with T315I-KOPM28 cells, 100 nM; in the assay with T315I-TCCS cells, 100 nM; with TCCS cells, < 10 nM.

Consider `Cc1cc(F)c(C(=O)Nc2cc(-c3cnn(C)c3)cc(C(F)(F)F)c2)cc1C#Cc1cnc2c(Nc3cn[nH]c3)cccn12` [Example 96, 5-((8-((1H-pyrazol-4-yl)amino)imidazo[1,2-a]pyridin-3-yl)ethynyl)-2-fluoro-4-methyl-N-(3-(1-methyl-1H-pyrazol-4-yl)-5-(trifluoromethyl)phenyl)benzamide], for which the concentration for 50% growth inhibition (GI50) was > 5 µM with Parental (Ba/F3); 50 to 500 nM in the assay with T315I-Bcr-Abl (Ba/F3); < 10 nM in the assay with KOPM28 cells; > 100 nM with T315I-KOPM28 cells; > 100 nM in the assay with T315I-TCCS cells; 100 nM with TCCS cells.

For the compound `Cc1cc(F)c(C(=O)Nc2cc(-c3ccncc3)cc(C(F)(F)F)c2)cc1C#Cc1cnc2c(Nc3cn[nH]c3)cccn12` [Example 97, 5-((8-((1H-pyrazol-4-yl)amino)imidazo[1,2-a]pyridin-3-yl)ethynyl)-2-fluoro-4-methyl-N-(3-(pyridin-4-yl)-5-(trifluoromethyl)phenyl)benzamide], the GI50 is > 5 µM in the assay on Parental (Ba/F3); 50 to 500 nM in the assay with T315I-Bcr-Abl (Ba/F3); < 10 nM in the assay with KOPM28 cells; > 100 nM in the assay with T315I-KOPM28 cells; 100 nM in the assay on T315I-TCCS cells; < 10 nM with TCCS cells.

Take `Cc1cc(F)c(C(=O)Nc2cc(-c3cccnc3)cc(C(F)(F)F)c2)cc1C#Cc1cnc2c(Nc3cn[nH]c3)cccn12` [Example 98, 5-((8-((1H-pyrazol-4-yl)amino)imidazo[1,2-a]pyridin-3-yl)ethynyl)-2-fluoro-4-methyl-N-(3-(pyridin-3-yl)-5-(trifluoromethyl)phenyl)benzamide]: the GI50 in the assay with Parental (Ba/F3) is > 5 µM; in the assay with T315I-Bcr-Abl (Ba/F3), 50 to 500 nM; with KOPM28 cells, < 10 nM; in the assay with T315I-KOPM28 cells, > 100 nM; with T315I-TCCS cells, 100 nM; with TCCS cells, < 10 nM.

With `Cc1cc(F)c(C(=O)Nc2cc(N3CCN(C)CC3)cc(C(F)(F)F)c2)cc1C#Cc1cnc2c(Nc3cn[nH]c3)cccn12` [Example 99, 5-((8-((1H-pyrazol-4-yl)amino)imidazo[1,2-a]pyridin-3-yl)ethynyl)-2-fluoro-4-methyl-N-(3-(4-methylpiperazin-1-yl)-5-(trifluoromethyl)phenyl)benzamide], the GI50 in the assay on Parental (Ba/F3) is 0.5 to 5 µM; in the assay on T315I-Bcr-Abl (Ba/F3), 50 to 500 nM; in the assay with KOPM28 cells, < 10 nM; in the assay on T315I-KOPM28 cells it was > 100 nM; with T315I-TCCS cells it was 100 nM; in the assay with TCCS cells it was < 10 nM.

Consider `Cc1cc(F)c(C(=O)Nc2cc(N3CCN(C)C(=O)C3)cc(C(F)(F)F)c2)cc1C#Cc1cnc2c(Nc3cn[nH]c3)cccn12` [Example 100, 5-((8-((1H-pyrazol-4-yl)amino)imidazo[1,2-a]pyridin-3-yl)ethynyl)-2-fluoro-4-methyl-N-(3-(4-methyl-3-oxopiperazin-1-yl)-5-(trifluoromethyl)phenyl)benzamide], for which the GI50 is > 5 µM in the assay with Parental (Ba/F3); 50 to 500 nM in the assay with T315I-Bcr-Abl (Ba/F3); < 10 nM with KOPM28 cells; > 100 nM in the assay on T315I-KOPM28 cells; 100 nM with T315I-TCCS cells; < 10 nM in the assay with TCCS cells.

The values above are taken from patent US12673945B2, “3-((8-((1H-pyrazol-4-yl)amino)imidazo[1,2-a]pyridin-3-yl)ethinyl)-n-phenylbenzamide derivative, method for preparing same, and pharmaceutical composition containing same as active ingredient for prevention or treatment of cancer” (DAEGU-GYEONGBUK MEDICAL INNOVATION FOUNDATION, priority 2020, dated 2026).
